Results from US6451807B1, “Methods of treating sexual dysfunction in an individual suffering from a retinal disease, class 1 congestive heart failure, or myocardial infarction using a PDE5 inhibitor” (Lilly Icos, LLC., priority 1999, dated 2002).

Target: T1, Bovine PDE6 (Bos taurus, UniProt P11541+P23439)
T1 construct: Hypotonic extracts were prepared by suspending isolated ROS; tissue Dr. N. Virmaux, INSERM U338, Strasbourg; host or cells: bovine retina, rod outer segment hypotonic extract
T1 sequence (P11541 2-856 limits assumed): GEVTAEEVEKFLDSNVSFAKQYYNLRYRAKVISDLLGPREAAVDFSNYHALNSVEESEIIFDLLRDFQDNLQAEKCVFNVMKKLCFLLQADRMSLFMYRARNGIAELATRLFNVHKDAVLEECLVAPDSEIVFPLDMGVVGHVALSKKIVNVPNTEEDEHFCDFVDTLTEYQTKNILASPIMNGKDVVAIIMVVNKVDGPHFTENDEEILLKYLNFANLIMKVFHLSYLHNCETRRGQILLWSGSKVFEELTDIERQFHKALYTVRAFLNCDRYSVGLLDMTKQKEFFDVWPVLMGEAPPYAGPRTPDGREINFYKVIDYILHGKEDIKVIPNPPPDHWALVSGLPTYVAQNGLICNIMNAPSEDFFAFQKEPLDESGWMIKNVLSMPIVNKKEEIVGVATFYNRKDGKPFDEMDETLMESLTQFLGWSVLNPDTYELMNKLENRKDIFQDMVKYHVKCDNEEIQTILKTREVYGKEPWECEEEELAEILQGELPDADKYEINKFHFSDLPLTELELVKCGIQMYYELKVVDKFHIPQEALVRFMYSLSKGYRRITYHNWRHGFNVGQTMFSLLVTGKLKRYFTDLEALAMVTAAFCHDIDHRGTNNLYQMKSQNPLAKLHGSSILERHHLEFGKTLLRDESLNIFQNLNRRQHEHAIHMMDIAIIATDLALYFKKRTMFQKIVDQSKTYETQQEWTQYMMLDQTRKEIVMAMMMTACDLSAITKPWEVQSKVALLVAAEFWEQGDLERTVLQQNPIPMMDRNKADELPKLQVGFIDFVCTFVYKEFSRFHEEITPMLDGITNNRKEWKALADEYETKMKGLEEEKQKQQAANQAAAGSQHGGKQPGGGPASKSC
T1 sequence (P23439 2-850 limits assumed): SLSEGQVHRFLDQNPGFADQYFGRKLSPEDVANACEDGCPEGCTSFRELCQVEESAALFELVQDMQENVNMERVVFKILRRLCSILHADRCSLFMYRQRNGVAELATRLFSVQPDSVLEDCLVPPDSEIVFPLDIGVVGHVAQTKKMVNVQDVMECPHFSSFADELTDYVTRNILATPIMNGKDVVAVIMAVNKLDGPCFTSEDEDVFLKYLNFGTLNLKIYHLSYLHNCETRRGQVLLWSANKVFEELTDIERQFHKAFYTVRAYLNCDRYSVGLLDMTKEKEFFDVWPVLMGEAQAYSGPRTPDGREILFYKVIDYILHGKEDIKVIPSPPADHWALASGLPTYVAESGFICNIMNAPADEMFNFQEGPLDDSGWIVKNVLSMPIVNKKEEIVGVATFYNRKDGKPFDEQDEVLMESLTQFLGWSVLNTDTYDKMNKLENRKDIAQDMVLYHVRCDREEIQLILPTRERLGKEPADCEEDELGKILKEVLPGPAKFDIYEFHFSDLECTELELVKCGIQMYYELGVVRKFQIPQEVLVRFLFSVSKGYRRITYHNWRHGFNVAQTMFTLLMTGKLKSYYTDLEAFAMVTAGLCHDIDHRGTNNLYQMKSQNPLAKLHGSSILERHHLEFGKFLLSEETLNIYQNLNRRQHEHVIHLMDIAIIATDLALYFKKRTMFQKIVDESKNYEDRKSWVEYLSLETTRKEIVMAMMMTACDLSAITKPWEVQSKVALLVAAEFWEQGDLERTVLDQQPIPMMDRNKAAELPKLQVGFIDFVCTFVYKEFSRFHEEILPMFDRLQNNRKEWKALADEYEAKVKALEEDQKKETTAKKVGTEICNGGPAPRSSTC
T1 sequence (P04972 1-87 partner): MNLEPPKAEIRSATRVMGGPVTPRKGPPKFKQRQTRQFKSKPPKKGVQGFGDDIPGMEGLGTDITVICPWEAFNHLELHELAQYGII
Assay: PDE6 enzyme inhibition, IC50 determination
Assay type: biochemical
Procedure: Bovine PDE6 was supplied by Dr. N. Virmaux, INSERM U338, Strasbourg. Bovine retinas were prepared as described by Virmaux et al., FEBS Letters, 12(6), pp. 325-328 (1971) and see also, A. Sitaramayya et al., Exp. Eye Res., 25, pp. 163-169 (1977). Briefly, unless stated otherwise, all operations were done in the cold and in dim red light. Eyes were kept in the cold and in the dark for up to four hours after slaughtering.
Preparation of bovine retinal outer segment (ROS) basically followed procedures described by Schichi et al., J. Biol. Chem., 224:529 (1969). In a typical experiment, 35 bovine retinas were ground in a mortar with 35 mL 0.066 M phosphate buffer, pH 7.0, made up to 40% with sucrose, followed by homogenization in a Potter homogenizer (20 up and down strokes). The suspension was centrifuged at 25,000×g for 20 minutes. The pellet was homogenized in 7.5 mL 0.006 M phosphate buffer (40% in sucrose), and carefully layered under 7.5 mL of phosphate buffer (containing no sucrose). Centrifugation was conducted in a swing-out rotor at 45,000×g for 20 minutes, and produced a pellet which is black at the bottom, and also a red band at the interface 0.066 M. phosphate—40% sucrose/0.066 M phosphate (crude ROS). The red material at the interface was removed, diluted with phosphate buffer, spun down to a pellet, and redistributed in buffered 40% sucrose as described above. This procedure was repeated 2 or 3 times until no pellet was formed. The purified ROS was washed in phosphate buffer and finally spun down to a pellet at 25,000×g for 20 minutes. All materials were then kept frozen until used.
Hypotonic extracts were prepared by suspending isolated ROS in 10 mM Tris-Cl pH 7.5, 1 mM EDTA, and 1 mM dithioerythritol, followed by centrifugation at 100,000×g for 30 minutes.
The preparation was reported to have a specific activity of about 35 nmoles cGMP hydrolyzed per minute per milligram protein.
Biophys. Acta, 384:430 (1975).

CN1CC(=O)N2[C@H](c3ccc4c(c3)OCO4)c3[nH]c4ccccc4c3C[C@@H]2C1=O [Compound 5, (6R-trans)-6-(1,3-benzodioxol-5-yl)-2,3,6,7,12,12a-hexahydro-2-methylpyrazino[1′,2′:1,6]pyrido[3,4-b]indole-1,4-dione]
IC50: 3.4 µM
